The values that follow come from ChEMBL document CHEMBL1124836 (J Med Chem, 1990).

One experiment deals with Adenosine A2 receptor (Rattus norvegicus, UniProt P29276+P30543).
Experiment [1] in a line: Ratio of A1-receptor binding to that of A2-receptor binding.
For a further experiment, the target named is T1, Adenosine receptor A1 (Rattus norvegicus, UniProt P25099).
T1 sequence (P25099 whole entry): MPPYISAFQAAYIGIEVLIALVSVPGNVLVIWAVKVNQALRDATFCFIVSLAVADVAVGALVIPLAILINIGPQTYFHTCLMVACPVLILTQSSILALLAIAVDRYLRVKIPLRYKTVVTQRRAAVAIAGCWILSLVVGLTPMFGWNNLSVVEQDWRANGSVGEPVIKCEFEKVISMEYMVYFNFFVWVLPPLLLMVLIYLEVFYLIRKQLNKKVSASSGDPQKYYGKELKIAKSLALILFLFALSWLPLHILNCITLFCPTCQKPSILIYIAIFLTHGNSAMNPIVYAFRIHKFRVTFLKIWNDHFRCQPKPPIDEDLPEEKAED
In words: Adenosine A1 receptor binding was measured in adenosine deaminase (ADA) pretreated rat cortical membranes using [3H]cyclohexyladenosine in the presence of 2-chloroadenosine.

The species named for experiment [2] is Rattus norvegicus. In words: Effective concentration required for 25% increase in coronary flow(CF) in perfused working heart model was determined. In kind it is functional.
For experiment [3], the species on record is Rattus norvegicus. Briefly: Effective concentration required for 25% decrease in heart rate in perfused working heart model was determined.

A word on the Ki: it is a dissociation constant, usually derived from enzyme kinetics or from competition with a known ligand. Regarding `CCNC(=O)[C@H]1O[C@@H](n2cnc3c(N)nc(NCc4ccccc4)nc32)[C@H](O)[C@@H]1O`, the Ki came to 1130 nM on Adenosine A2 receptor and 8600 nM on Adenosine receptor A1. Besides, the Ratio in experiment [1] turned out to be 7.6.
In general, EC25 refers to the concentration at which the effect reaches the 25% level. As for `CCNC(=O)[C@H]1O[C@@H](n2cnc3c(N)nc(NCCc4ccc(CCC(=O)O)cc4)nc32)[C@H](O)[C@@H]1O` [CGS-21680], the EC25 in the experiment listed under Rattus norvegicus [2] is 2 nM; in the experiment listed under Rattus norvegicus [3], above 3000 nM.
As to `CNC(=O)[C@H]1O[C@@H](n2cnc3c(N)nc(NCCc4ccccc4)nc32)[C@H](O)[C@@H]1O`, the values for the Ki on Adenosine A2 receptor and at Adenosine receptor A1 were 77 nM and 5350 nM, respectively. Moreover, the Ratio in experiment [1] is 69.
Taken in the same sequence, the figures for `CCNC(=O)[C@H]1O[C@@H](n2cnc3c(N)nc(NCCc4ccc(F)cc4)nc32)[C@H](O)[C@@H]1O` were 7.7 nM, 1180 nM and 154.
As for `Nc1nc(Nc2ccccc2)nc2c1ncn2[C@@H]1O[C@H](CO)[C@@H](O)[C@H]1O`, the EC25 in the experiment listed under Rattus norvegicus [2] is 110 nM; in the experiment filed under Rattus norvegicus [3] it was above 3000 nM. On Adenosine A2 receptor, this compound registered a Ki of 71 nM.
Regarding `CCNC(=O)[C@H]1O[C@@H](n2cnc3c(N)nc(NCCc4ccc(CCC(=O)OC)cc4)nc32)[C@H](O)[C@@H]1O`, the Ki on Adenosine A2 receptor was 9 nM; at Adenosine receptor A1, 1260 nM. For the same compound, the Ratio in experiment [1] came out at 140.
Taken in the same sequence, the figures for `CCNC(=O)[C@H]1O[C@@H](n2cnc3c(N)nc(NCCc4ccc(OCC(=O)O)cc4)nc32)[C@H](O)[C@@H]1O` were 42 nM, 4250 nM and 101.
On to `CCNC(=O)[C@H]1O[C@@H](n2cnc3c(N)nc(N(C)CCc4ccccc4)nc32)[C@H](O)[C@@H]1O`, for which the Ki on Adenosine A2 receptor was 71 nM; at Adenosine receptor A1 it was 12100 nM. For the same compound, in experiment [1], the Ratio was determined as 170.
On to `CCNC(=O)[C@H]1O[C@@H](n2cnc3c(N)ncnc32)[C@H](O)[C@@H]1O` [NECA], for which the EC25 in the experiment filed under Rattus norvegicus [2] amounted to 5 nM; in the experiment listed under Rattus norvegicus [3] it was 60 nM.
Take `CCNC(=O)[C@H]1OC(n2cnc3c(N)nc(NCCc4ccc(Cl)cc4)nc32)[C@H](O)[C@@H]1O` (stereo partly specified): the figures for the Ki at Adenosine A2 receptor and at Adenosine receptor A1 were 7.5 nM and 1510 nM, respectively. In addition, the Ratio in experiment [1] was 201.
Regarding `CCNC(=O)[C@H]1O[C@@H](n2cnc3c(N)nc(NCCc4ccccc4)nc32)[C@H](O)[C@@H]1O`, the 25% effect concentration (EC25) was 3 nM in the experiment filed under Rattus norvegicus [2] and above 3000 nM in the experiment listed under Rattus norvegicus [3]. In addition, the Ki at Adenosine receptor A1 worked out at 473 nM.
For `CC(=O)O[C@]1(C(C)=O)CC[C@H]2[C@@H]3C=C(Cl)C4=CC(=O)[C@@H]5C[C@@H]5[C@]4(C)[C@H]3CC[C@@]21C` [CYPROTERONE ACETATE], the values for the Ki on Adenosine A2 receptor and on Adenosine receptor A1 were 636 nM and 1.3 nM, respectively. Also, the Ratio in experiment [1] was determined as 0.002.
Consider `Nc1nc(NCCc2ccccc2)nc2c1ncn2[C@@H]1O[C@H](C(=O)NC2CC2)[C@@H](O)[C@H]1O`, for which the Ki stood at 14 nM on Adenosine A2 receptor and 502 nM on Adenosine receptor A1. In addition, in experiment [1], the Ratio is 36.
Turning to `CCNC(=O)[C@H]1O[C@@H](n2cnc3c(N)nc(NCCc4ccc(CC(=O)O)cc4)nc32)[C@H](O)[C@@H]1O`, the figures for the Ki on Adenosine A2 receptor and at Adenosine receptor A1 were 45 nM and 4880 nM, respectively. Further, in experiment [1], the Ratio came out at 109.
On to `CNC(=O)[C@H]1O[C@@H](n2cnc3c(N)ncnc32)[C@H](O)[C@@H]1O`, for which the Ki at Adenosine receptor A1 stood at 101 nM.
